Data reported in PubChem BioAssay (NCI).
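The compound was tested at five concentrations on cells cultured in 96-well plates, with a 48-hour exposure period. GI50: concentration for 50% inhibition of growth. TGI: total growth inhibition.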

Tests used:
Experiment in all cases: NCI anticancer screen, dose series, 48 h
[1] = tested on: ACHN renal
[2] = tested on: COLO 205 colon
[3] = tested on: DU-145 prostate
[4] = tested on: EKVX NSCLC
[5] = tested on: HOP-92 NSCLC
[6] = tested on: MOLT-4 leukemia
[7] = tested on: SF-295 CNS
[8] = tested on: SK-MEL-28 melanoma
[9] = tested on: SN12C renal
[10] = tested on: SK-MEL-2 melanoma

CC(C)=CCNc1nc(Cl)nc2nc[nH]c12
TGI [1]: > 100 µM
TGI [2]: > 100 µM
TGI [3]: > 100 µM
TGI [4]: > 100 µM
TGI [5]: 87.5 µM
TGI [6]: > 100 µM
TGI [7]: > 100 µM
TGI [8]: > 100 µM
TGI [9]: > 100 µM

Cc1ccc(S(=O)(=O)Nn2c(O)c(C#N)c(-c3ccc(Cl)cc3)c(C#N)c2=O)cc1
TGI [1]: > 100 µM
TGI [2]: > 100 µM
TGI [4]: > 100 µM
TGI [5]: > 100 µM
TGI [6]: > 100 µM
TGI [7]: > 100 µM
TGI [10]: > 100 µM
TGI [8]: > 100 µM
TGI [9]: > 100 µM

Cc1ccccc1N=C(N)Nc1ccccc1C
TGI [1]: > 100 µM
TGI [2]: > 100 µM
TGI [3]: > 100 µM
TGI [4]: > 100 µM
TGI [6]: > 100 µM
TGI [7]: > 100 µM
TGI [10]: > 100 µM
TGI [8]: > 100 µM
TGI [9]: > 100 µM

Cc1cc(C)c2c(c1)C(=O)/C(=C/c1ccccc1C(=O)O)C2
TGI [1]: > 100 µM
TGI [3]: > 100 µM
TGI [4]: > 100 µM
TGI [5]: > 100 µM
TGI [6]: > 100 µM
TGI [7]: > 100 µM
TGI [10]: > 100 µM
TGI [8]: > 100 µM
TGI [9]: > 100 µM

C/C(=N\NC(=S)N(C)C)c1cccnn1
TGI [1]: 0.474 µM
TGI [2]: > 100 µM
TGI [3]: > 100 µM
TGI [4]: 10.4 µM
TGI [6]: 3.08 µM
TGI [7]: > 100 µM
TGI [10]: > 100 µM
TGI [8]: > 100 µM
TGI [9]: > 100 µM

O=C1OC[C@H]2[C@@H]1[C@H]1O[C@@H]2C2=C(CCC2)C1=O
TGI [1]: > 100 µM
TGI [2]: > 100 µM
TGI [3]: > 100 µM
TGI [4]: > 100 µM
TGI [5]: > 100 µM
TGI [7]: > 100 µM
TGI [10]: > 100 µM
TGI [8]: > 100 µM
TGI [9]: > 100 µM

CN(Cc1cnc2nc(N)nc(N)c2n1)c1ccc(C(=O)NC(CO)CCCO)cc1 (centres undefined)
TGI [1]: > 100 µM
TGI [2]: > 100 µM
TGI [3]: > 100 µM
TGI [4]: > 100 µM
TGI [6]: > 100 µM
TGI [7]: > 100 µM
TGI [10]: > 100 µM
TGI [8]: > 100 µM
TGI [9]: > 100 µM

CN=C(/N=c1\ssc(=NC)n1C)N(C)C
TGI [1]: > 100 µM
TGI [2]: > 100 µM
TGI [4]: > 100 µM
TGI [5]: > 100 µM
TGI [6]: > 100 µM
TGI [7]: > 100 µM
TGI [8]: > 100 µM
TGI [9]: > 100 µM

COC[C@@H](N=Cc1ccc([N+](=O)[O-])cc1)C(C)C
TGI [1]: > 100 µM
TGI [3]: > 100 µM
TGI [4]: > 100 µM
TGI [6]: > 100 µM
TGI [7]: > 100 µM
TGI [10]: > 100 µM
TGI [8]: > 100 µM
TGI [9]: > 100 µM

CCCSc1ccc2[nH]c(N3C(=O)/C(=C/c4ccccc4)N=C3c3ccccc3)cc2c1
TGI [1]: > 50 µM
TGI [2]: 24.6 µM
TGI [3]: > 50 µM
TGI [4]: > 50 µM
TGI [5]: > 50 µM
TGI [6]: > 50 µM
TGI [10]: 18 µM
TGI [8]: > 50 µM
TGI [9]: > 50 µM

Cc1cc2c([nH]c3ccccc32)c(O)c1-c1c(C)cc2c([nH]c3ccccc32)c1O
TGI [1]: 27.3 µM
TGI [3]: 25.7 µM
TGI [4]: 27.7 µM
TGI [5]: 30.7 µM
GI50 [6]: 3.62 µM
TGI [6]: 16.3 µM
GI50 [7]: 17.4 µM
TGI [7]: 33.4 µM
TGI [10]: 30.6 µM
TGI [8]: 55 µM
TGI [9]: 6.44 µM
